According to ChEMBL document CHEMBL5725901, “[7,6]-fused bicyclic antidiabetic compounds” (2018):

Biological target: Free fatty acid receptor 1 (Homo sapiens, UniProt O14842)
Assay: FLIPR Assay: FLIPR (Fluorimetric Imaging Plate Reader, Molecular Devices) assays were performed to measure agonist-induced calcium mobilization of the stable clones. For the FLIPR assay, one day before assay, GPR40/CHO NFAT BLA cells were seeded into black-wall-clear-bottom 384-well plates (Costar) at 1.4×10e4 cells/20 μL medium/well. The cells were incubated with 20 μl/well of the assay buffer (HBSS, 0.1% BSA, 20 mM HEPES, 2.5 mM probenecid, pH 7.4) containing 8 μM fluo-4,AM, 0.08% pluronic acid at room temperature for 100 minutes. Fluorescence output was measured using FLIPR. Compounds were dissolved in DMSO and diluted to desired concentrations with assay buffer. 13.3 μL/well of compound solution was added.

Free fatty acid receptor 1, sequence (O14842 whole entry): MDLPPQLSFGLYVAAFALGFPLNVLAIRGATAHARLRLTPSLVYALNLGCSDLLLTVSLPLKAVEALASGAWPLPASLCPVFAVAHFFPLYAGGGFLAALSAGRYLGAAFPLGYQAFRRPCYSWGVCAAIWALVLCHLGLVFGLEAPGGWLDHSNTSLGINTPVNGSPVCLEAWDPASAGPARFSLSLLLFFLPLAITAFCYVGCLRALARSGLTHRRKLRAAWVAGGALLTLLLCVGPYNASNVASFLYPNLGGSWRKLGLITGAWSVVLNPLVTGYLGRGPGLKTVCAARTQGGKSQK

- EC50: 3.3 µM
Compound: Cc1cccc(C)c1-c1cccc(C2CCCc3cc(CCC(=O)O)ccc3O2)c1 (stereo unspecified)
